Laboratory results reported in ChEMBL document CHEMBL1156326, “Novel N-substituted benzimidazole CXCR4 antagonists as potential anti-HIV agents” (Bioorg Med Chem Lett, 2010).

Tests used:
[1] = Cytotoxicity against human HOS cells; format: cell-based
[2] = tested on: Human immunodeficiency virus 1; experiment: Antiviral activity against HIV1 3B infected in human HOS cells expressing human CXCR4/CCR5/CD4 and HIV-LTR-luciferase; format: functional, organism-based; conditions: Human immunodeficiency virus 1, 3B
[3] = tested on: Human immunodeficiency virus 1; experiment: Antiviral activity against HIV1 3B infected in human HOS cells expressing human CXCR4/CCR5/CD4 and HIV-LTR-luciferase assessed as change in concentration at which 50 % efficacy is observed in presence of human serum albumin and alpha acid glycoprotein; format: functional
[4] = target: C-X-C chemokine receptor type 4 (Homo sapiens, UniProt P61073); experiment: Inhibition of human CXCR4
C-X-C chemokine receptor type 4, sequence (P61073 whole entry): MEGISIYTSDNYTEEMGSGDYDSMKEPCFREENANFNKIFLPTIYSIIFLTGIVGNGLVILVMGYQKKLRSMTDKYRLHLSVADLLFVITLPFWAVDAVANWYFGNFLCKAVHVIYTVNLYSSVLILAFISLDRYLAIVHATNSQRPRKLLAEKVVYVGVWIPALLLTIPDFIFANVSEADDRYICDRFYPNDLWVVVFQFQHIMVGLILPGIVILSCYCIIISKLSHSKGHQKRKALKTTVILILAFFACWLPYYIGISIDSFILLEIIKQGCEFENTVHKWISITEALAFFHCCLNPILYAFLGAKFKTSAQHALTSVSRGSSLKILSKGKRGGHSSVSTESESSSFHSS

[5] = Half life in dog at 1 mg/kg, iv; format: ADME, organism-based, Canis lupus familiaris; set-up: dose 1 mg/kg, route intravenous; conditions: in vivo
[6] = Half life in rat at 1 mg/kg, iv; format: ADME, organism-based; set-up: dose 1 mg/kg, route intravenous; conditions: in vivo
[7] = Clearance in dog at 1 mg/kg, iv; format: ADME, organism-based, Canis lupus familiaris; set-up: dose 1 mg/kg, route intravenous; conditions: in vivo
[8] = Clearance in rat at 1 mg/kg, iv; format: ADME, organism-based; set-up: dose 1 mg/kg, route intravenous; conditions: in vivo
[9] = target: Voltage-gated inwardly rectifying potassium channel KCNH2 (Homo sapiens, UniProt Q12809); experiment: Binding affinity to human ERG
Voltage-gated inwardly rectifying potassium channel KCNH2, sequence (Q12809 whole entry): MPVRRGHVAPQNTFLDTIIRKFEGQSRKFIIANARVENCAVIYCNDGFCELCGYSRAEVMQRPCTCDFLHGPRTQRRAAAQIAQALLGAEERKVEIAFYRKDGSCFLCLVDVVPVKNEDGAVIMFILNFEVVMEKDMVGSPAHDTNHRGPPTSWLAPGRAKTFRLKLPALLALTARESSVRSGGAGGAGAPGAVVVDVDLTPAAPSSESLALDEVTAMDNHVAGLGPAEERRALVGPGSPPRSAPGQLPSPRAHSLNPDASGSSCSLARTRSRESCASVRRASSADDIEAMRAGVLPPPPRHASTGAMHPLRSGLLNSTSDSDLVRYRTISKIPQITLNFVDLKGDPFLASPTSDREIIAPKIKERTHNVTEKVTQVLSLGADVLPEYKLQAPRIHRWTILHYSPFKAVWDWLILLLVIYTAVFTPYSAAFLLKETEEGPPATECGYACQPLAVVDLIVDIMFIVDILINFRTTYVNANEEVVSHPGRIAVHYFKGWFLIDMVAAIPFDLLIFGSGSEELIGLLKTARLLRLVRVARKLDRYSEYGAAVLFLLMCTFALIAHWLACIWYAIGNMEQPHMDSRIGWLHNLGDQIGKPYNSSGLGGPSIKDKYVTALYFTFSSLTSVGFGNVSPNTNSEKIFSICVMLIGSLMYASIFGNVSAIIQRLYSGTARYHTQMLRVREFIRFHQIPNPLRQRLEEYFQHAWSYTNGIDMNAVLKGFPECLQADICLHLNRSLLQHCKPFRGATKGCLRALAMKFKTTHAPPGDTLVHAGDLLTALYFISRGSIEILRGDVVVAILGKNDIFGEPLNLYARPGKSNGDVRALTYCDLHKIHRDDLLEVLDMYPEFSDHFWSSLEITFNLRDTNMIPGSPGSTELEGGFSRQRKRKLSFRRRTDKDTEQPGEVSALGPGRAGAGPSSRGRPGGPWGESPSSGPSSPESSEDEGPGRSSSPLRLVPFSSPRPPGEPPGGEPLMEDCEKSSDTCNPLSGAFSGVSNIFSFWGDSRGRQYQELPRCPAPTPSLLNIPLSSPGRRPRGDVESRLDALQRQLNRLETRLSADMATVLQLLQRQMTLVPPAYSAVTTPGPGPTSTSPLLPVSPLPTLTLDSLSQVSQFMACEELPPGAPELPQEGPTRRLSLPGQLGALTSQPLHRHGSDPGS

[10] = Oral bioavailability in rat at 3 mg/kg; format: ADME, organism-based; conditions: in vivo
[11] = Oral bioavailability in dog at 3 mg/kg; format: ADME, organism-based, Canis lupus familiaris; conditions: in vivo

SMILES | CC50 [1] [nM] | IC50 [2] [nM] | fold change (FC) [3] | other results
CN(Cc1nc2ccccc2n1CC1CNC1)C1CCCc2cccnc21 (stereo not drawn) | 15000 | 84 | – | –
CN1CCCC(Cn2c(CN(C)C3CCCc4cccnc43)nc3ccccc32)C1 (stereo not drawn) | 3000 | 19 | – | –
CN1CCC(Cn2c(CN(C)C3CCCc4cccnc43)nc3ccccc32)C1 (stereo not drawn) | 15000 | 57 | – | –
CC(C)CCN1CCC[C@H](Cn2c(CN(C)[C@H]3CCCc4cccnc43)nc3ccccc32)C1 | 2300 | 15 | 5.1 | –
CN1CC(Cn2c(CN(C)C3CCCc4cccnc43)nc3ccccc32)C1 (stereo not drawn) | 14000 | 66 | – | –
CN(Cc1nc2ccccc2n1C[C@H]1CCCN(Cc2cccnc2)C1)[C@H]1CCCc2cccnc21 | 2500 | 33 | 8.7 | –
CN(Cc1nc2ccccc2n1CC1CCCNC1)C1CCCc2cccnc21 (stereo not drawn) | 15000 | 51 | – | –
CN(Cc1nc2ccccc2n1CC1CCNC1)C1CCCc2cccnc21 (stereo not drawn) | 7700 | 24 | – | –
CN(Cc1nc2ccccc2n1CCC1CCCCN1)C1CCCc2cccnc21 (stereo not drawn) | 8300 | 64 | – | –
CN1CCCCC1CCn1c(CN(C)C2CCCc3cccnc32)nc2ccccc21 (stereo not drawn) | 4900 | 33 | – | –
CN(Cc1nc2ccccc2n1C1CCNCC1)C1CCCc2cccnc21 (stereo not drawn) | 13000 | 99 | – | –
CN1CCC(n2c(CN(C)C3CCCc4cccnc43)nc3ccccc32)CC1 (stereo not drawn) | 16000 | 95 | – | IC50 [4]: 76 nM
CN1CCC[C@H](Cn2c(CN(C)[C@H]3CCCc4cccnc43)nc3ccccc32)C1 | 3600 | 6 | 10 | –
CN1CCC[C@@H](Cn2c(CN(C)[C@H]3CCCc4cccnc43)nc3ccccc32)C1 | 3500 | 21 | – | –
CN1CCC[C@H](Cn2c(CN(C)[C@@H]3CCCc4cccnc43)nc3ccccc32)C1 | 3600 | 210 | – | –
CC(C)CN1CCC[C@H](Cn2c(CN(C)[C@H]3CCCc4cccnc43)nc3ccccc32)C1 | > 2000 | 8.1 | 6.2 | –
CN1CCC[C@@H](Cn2c(CN(C)[C@@H]3CCCc4cccnc43)nc3ccccc32)C1 | 2800 | 500 | – | –
CN(Cc1nc2ccccc2n1C[C@H]1CCCNC1)[C@H]1CCCc2cccnc21 | 3500 | 8 | 1.2 | –
CC(C)N1CCC[C@H](Cn2c(CN(C)[C@H]3CCCc4cccnc43)nc3ccccc32)C1 | 2100 | 2 | 2 | IC50 [4]: 4.5 nM; half-life [5]: 11 h; half-life [6]: 5.8 h; clearance [7]: 9.4 mL/min/kg; clearance [8]: 8.5 mL/min/kg; Activity [9]: Active; bioavailability [10]: 11%; bioavailability [11]: 22%
CN(Cc1nc2ccccc2n1C[C@H]1CCCN(CCO)C1)[C@H]1CCCc2cccnc21 | 2500 | 12 | 9.1 | –
CN(Cc1nc2ccccc2n1CCCN)C1CCCc2cccnc21 (stereo not drawn) | 9600 | – | – | IC50 [4]: 47 nM
